Source: patent US6989396B2, “Tropane alkaloid multidrug resistance inhibitors from Erythroxylum pervillei and use of the same” (The Board of Trustees of the University of Illinois, priority 2001, dated 2006)
“Also recorded” adds a separate entry of the source.

How the values were obtained:
[1] = tested on: Col2, colon cancer; experiment: In vitro cytotoxicity, human tumor panel: Col2; assay type: cell-based; conditions: Homo sapiens, read-out: ED50 Col2
In short: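 Each compound is tested for cytotoxicity on human tumor cell lines using a published method, and KB-V1 cells are assayed in the presence and absence of vinblastine (VLB).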

[2] = tested on: KB-8-5 cells; experiment: In vivo hollow fiber test: KB-8-5; set-up: species or system NCr nu/nu mice
Method: (§1) In vivo hollow fiber test. […] Confluent monolayers of KB-3, KB-V1 or KB-8-5 cells were harvested, collected by centrifugation and resuspended in conditioned medium at a concentration of 7.5×10^5 cells/ml.
(§2) Test compounds were administrated once daily by intraperitoneal injection from day 3–6 after implantation. Body weights were measure daily.
(§3) After incubating at 37° C. for 4 hours, the culture medium was aspirated and the samples were washed twice with normal saline containing 2.5% protamine sulfate solution by overnight incubation at 4° C. […] The formazan was extracted from each sample with DMSO (250 μl/well) for 4 hours at room temperature on a rotation platform.

[3] = tested on: MDR1 (Pgp) expression; experiment: Western blot analysis of MDR1 expression; assay type: cell-based, human; conditions: KB-V1 and CEM/VLB100 cells, 72 hours; pervilleine A up to 45 μM, verapamil up to 44 μM
Method: Western blot analysis of MDR1 expression. […] Cells (7.5×10^5 cells as starting cell amount) were harvested using SDS lysis buffer [20 mM Tris-HCl (pH 6.8) containing 0.4% SDS (w/v), 5% glycerol (v/v), 0.006% bromophenol blue, 2% β-mer-captoethanol], and lysates were boiled for 10 minutes and stored at −20° C. Aliquots of lysates were used for protein determinations (bicinchoninic acid protein assay kit with BSA as standard), and equivalent amounts of protein were electrophoresed by SDS-PAGE with precast 7.5% Tris-glycine acrylamide gels (Novex, San Diego, Calif.). Following transfer to polyvinylidene difluoride membranes, nonspecific binding sites were blocked with 5% nonfat dry milk. Blotting was performed with rabbit polyclonal antibody mdr (Ab-1) (Oncogene Research Products, Inc.) and analyzed by streptavidin horseradish peroxidase-conjugated secondary antibody (Amersham Life Science) and visualized using a ECL western blotting detection system (Amersham Life Science).

[4] = tested on: Lu1, lung cancer; experiment: In vitro cytotoxicity, human tumor panel: Lu1; assay type: cell-based; conditions: Homo sapiens, read-out: ED50 Lu1
Method: Cytotoxicity assay. Compounds 1–9 were evaluated for cytotoxic activity against a panel of human cancer cell lines, including KB-V1 in the presence and absence of VLB, according to an established protocol (68).

[5] = tested on: KB-V1 cells; experiment: In vivo hollow fiber test: KB-V1; set-up: species or system NCr nu/nu mice
Method: as §1, §2, §3

[6] = summation of single-agent inhibitions

Structure (SMILES): COc1cc(C=CC(=O)O[C@H]2[C@@H](O)[C@@H]3C[C@H](OC(=O)c4cc(OC)c(OC)c(OC)c4)C[C@H]2N3C)cc(OC)c1OC [Compound 3, 3α-(3,4,5-trimethoxybenzoyloxy)-6β-(3,4,5-trimethoxycinnamoyloxy)-7β-hydroxytropane]
- IC50 [1]: > 20 µg/mL
- Calculated inhibition (vinblastine + reversing agent as single agents), KB-8-5, i.p. site [2, 6]: 4.5%
- Calculated inhibition (vinblastine + reversing agent as single agents), KB-8-5, s.c. site [2, 6]: 4.9%
- Observed inhibition from coadministration with vinblastine, KB-8-5, s.c. site ([2]; vinblastine 100 μg/kg + reversing agent 0.136 mmol/kg): 28 (P = 0.008) %
- Observed inhibition from coadministration with vinblastine, KB-8-5, i.p. site ([2]; vinblastine 100 μg/kg + reversing agent 0.136 mmol/kg, listed as pervilleine A): 74.7 (P < 0.0001) %
- Growth inhibition, single agent, KB-8-5, s.c. site ([2]; vinblastine 100 μg/kg, reversing agents 0.136 mmol/kg): 2.6%
- Growth inhibition, single agent, KB-8-5, i.p. site ([2]; vinblastine 100 μg/kg, reversing agents 0.136 mmol/kg, i.p. injection once daily days 3–6): 3.3%
- effect on levels of Pgp (MDR1 protein expression) [3]: did not alter expression levels; also recorded: did not significantly alter; also recorded: did not significantly affect
- IC50 [4]: > 20 µg/mL
- inhibition of cell growth when used in combination with vinblastine ([5]; KB-V1 or KB-8-5 cells in hollow fibers implanted into NCr nu/nu mice): up to 75%
- Calculated inhibition (vinblastine + reversing agent as single agents), KB-V1, i.p. site [5, 6]: 2%
- Calculated inhibition (vinblastine + reversing agent as single agents), KB-V1, s.c. site [5, 6]: 3.3%
- Observed inhibition from coadministration with vinblastine, KB-V1, s.c. site ([5]; vinblastine 250 μg/kg + reversing agent 0.136 mmol/kg): 14.6 (P = 0.188) %
- Observed inhibition from coadministration with vinblastine, KB-V1, i.p. site ([5]; vinblastine 250 μg/kg + reversing agent 0.136 mmol/kg, i.p. injection once daily days 3–6, listed as pervilleine A): 68.6 (P < 0.0001) %
- Growth inhibition, single agent, KB-V1, s.c. site ([5]; vinblastine 250 μg/kg, reversing agents 0.136 mmol/kg, i.p. injection once daily days 3–6): 3.3%
- Growth inhibition, single agent, KB-V1, i.p. site ([5]; vinblastine 250 μg/kg, reversing agents 0.136 mmol/kg, i.p. injection once daily days 3–6, fibers retrieved day 7, MTT): 1%
